Laboratory results reported in patent US10364256B2 (GlaxoSmithKline Intellectual Property Development Limited, priority 2015, dated 2019).
Read-outs that look alike come from different tables or passages of the source.

Legend:
[1] = test system: NQO1 specific enzyme activity in BEAS-2B cells (marker for NRF2 activation); experiment: BEAS-2B NQO1 MTT Assay; type: cell-based; details: compound incubated 48 hours, read-out: EC50 (NQO1 specific enzyme activity induction)
Procedure, shortened: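 NQO1 specific activity induction is derived from the rate of MTT reduction (ΔOD/min, 570 nm, 30 min kinetic read) in crude lysates of BEAS-2B cells exposed to compound for 48 h. A 3-parameter fit gives EC50, reported as pEC50; part of each lysate goes to Cell Titer Glo.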

[2] = molecular target: T1, Keap1 Kelch domain (321-609) / TAMRA-labeled 16mer NRF2 peptide (ETGE motif) (Homo sapiens, UniProt Q14145); experiment: NRF2-Keap1 FP Assay (Keap1 Kelch fluorescence polarization); type: binding; details: 20 nM Keap1 (321-609), 8 nM Tamra labeled peptide
T1 construct: the Kelch domain (321-609) of Keap1 is used
T1 sequence (Q14145 321-609): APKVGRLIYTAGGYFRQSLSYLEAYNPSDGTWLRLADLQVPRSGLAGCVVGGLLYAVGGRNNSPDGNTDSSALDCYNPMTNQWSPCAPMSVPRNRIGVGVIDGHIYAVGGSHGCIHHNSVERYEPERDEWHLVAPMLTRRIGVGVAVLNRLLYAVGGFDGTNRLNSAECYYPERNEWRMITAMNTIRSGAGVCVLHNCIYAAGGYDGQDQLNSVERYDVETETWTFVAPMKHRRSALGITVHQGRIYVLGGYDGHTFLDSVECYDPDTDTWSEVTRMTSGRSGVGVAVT
Procedure, shortened: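 Compound dilutions (3-fold) were incubated 1 hr at room temperature with 20 nM Keap1 Kelch (321-609) and 8 nM TAMRA-labeled ETGE 16mer peptide. Buffer was 50 mM Tris pH 8.0, 100 mM NaCl, 5 mM MgCl2, 1 mM DTT, 2 mM CHAPS, 0.005% BSA. Fluorescence polarization (mP) was normalized to controls and fitted with a four-parameter equation to give pIC50.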

[3] = molecular target: T2, full length Keap1 protein / full length NRF2 protein (Homo sapiens, UniProt Q14145); experiment: NRF2-Keap1 TR-FRET Low Protein Assay; type: binding; details: 1.25 nM Keap1 FlagHis and 2.5 nM biotin-NRF2 added
T2 construct: full length NRF2 protein and full length Keap1 protein (Keap1 exists a dimer) are used; His
T2 sequence (Q14145 whole entry): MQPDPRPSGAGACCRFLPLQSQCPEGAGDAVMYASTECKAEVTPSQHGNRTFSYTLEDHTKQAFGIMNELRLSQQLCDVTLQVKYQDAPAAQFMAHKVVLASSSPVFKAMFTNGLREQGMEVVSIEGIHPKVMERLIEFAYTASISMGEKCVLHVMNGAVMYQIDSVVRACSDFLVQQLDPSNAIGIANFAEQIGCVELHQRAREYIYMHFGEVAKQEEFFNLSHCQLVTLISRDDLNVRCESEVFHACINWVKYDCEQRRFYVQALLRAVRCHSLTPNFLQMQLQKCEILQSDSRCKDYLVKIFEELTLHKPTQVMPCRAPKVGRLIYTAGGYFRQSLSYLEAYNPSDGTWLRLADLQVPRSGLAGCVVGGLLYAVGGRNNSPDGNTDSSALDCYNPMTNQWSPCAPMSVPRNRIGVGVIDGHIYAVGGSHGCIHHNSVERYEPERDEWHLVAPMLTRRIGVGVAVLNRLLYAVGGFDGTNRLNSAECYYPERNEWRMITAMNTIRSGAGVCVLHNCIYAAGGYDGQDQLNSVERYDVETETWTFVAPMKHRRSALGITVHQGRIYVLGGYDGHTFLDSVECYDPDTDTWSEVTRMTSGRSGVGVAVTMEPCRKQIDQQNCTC
Procedure, shortened: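 Flag-tagged full-length Keap1 was preincubated with compound (3-fold series) for 2.25 h at 37 °C in Tris pH 8.0/MgCl2/NaCl/BSA/DTT/CHAPS. Biotin-Avi-NRF2 (added at 2.5 nM) was then bound for 1.25 h at 4 °C. Eu-streptavidin/anti-Flag-APC TR-FRET (665/615 nm) was read after 1 h at RT, and pIC50 came from a four-parameter fit.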

Row | Molecule | IC50 [2] [nM] | IC50 [3] [nM] | EC50 ([1]; Homo sapiens) [nM] | EC50 [1] [nM] | EC50 ([1]; Homo sapiens, BEAS-2B, 48 h) [nM]
1 | C[C@H]1Cc2ccc(Br)cc2S(=O)(=O)N(Cc2cccc(-c3cccc(-n4ncc(C(=O)O)c4[C@@H]4C[C@H]4c4cn(C)nn4)c3)c2)C1 (single isomer, unassigned; isomer 1) [Example 134] | 10 to 100 | < 10 | 100 to 1000 |  | 
2 | CC(Oc1cccc(-c2cccc(-n3ncc(C(=O)O)c3[C@H]3C[C@@H]3c3cn(C)nn3)c2)c1)[C@H]1CC[C@H](C(F)(F)F)CC1 (mixture of isomers) [Example 180, 5-((1,2-trans)-2-(1-Methyl-1H-1,2,3-triazol-4-yl)cyclopropyl)-1-(3′-((R)-1-((1R,4R)-4-(trifluoromethyl)cyclohexyl)ethoxy)-[1,1′-biphenyl]-3-yl)-1H-pyrazole-4-carboxylic acid] | 100 to 1000 | 10 to 100 | 1 to 10 |  | 
3 | CCn1cc([C@H]2C[C@@H]2c2c(C(=O)O)cnn2-c2cc(OC)cc(-c3cccc(OC(C)C4CCCCC4)c3)c2)nn1 (stereo partly drawn) [Example 193, 1-(3′-(1-cyclohexylethoxy)-5-methoxy-[1,1′-biphenyl]-3-yl)-5-((1S,2S)-2-(1-ethyl-1H-1,2,3-triazol-4-yl)cyclopropyl)-1H-pyrazole-4-carboxylic acid] | 100 to 1000 | 100 to 1000 | 100 to 1000 |  | 
4 | Cn1cc([C@@H]2C[C@H]2c2c(C(=O)O)cnn2-c2cccc(-c3cccc(/C=C/C4CCCCC4)c3)c2)nn1 (racemic) [Example 113, rac-1-(3′-((E)-2-Cyclohexylvinyl)-[1,1′-biphenyl]-3-yl)-5-(trans-2-(1-methyl-1H-1,2,3-triazol-4-yl)cyclopropyl)-1H-pyrazole-4-carboxylic Acid] | 100 to 1000 | 100 to 1000 | 10 to 100 |  | 
5 | C[C@H](Oc1cccc(-c2cccc(-n3ncc(C(=O)O)c3[C@@H]3C[C@H]3c3cn(C4CCC4)nn3)c2)c1)C1CCCCC1 (racemic) [Example 78, 5-(trans-2-(1-Cyclobutyl-1H-1,2,3-triazol-4-yl)cyclopropyl)-1-(3′-((S)-1-cyclohexylethoxy)-[1,1′-biphenyl]-3-yl)-1H-pyrazole-4-carboxylic acid] | 10 to 100 | 10 to 100 | 1 to 10 |  | 
6 | Cn1cc([C@@H]2C[C@H]2c2c(C(=O)O)cnn2-c2cccc(-c3cccc(S(=O)(=O)N4Cc5ccccc5OC(C)(C)C4)c3)c2)nn1 (racemic) [Example 141, 1-(3′-((2,2-Dimethyl-2,3-dihydrobenzo[f][1,4]oxazepin-4(5H)-yl)sulfonyl)-[1,1′-biphenyl]-3-yl)-5-((1,2-trans)-2-(1-methyl-1H-1,2,3-triazol-4-yl)cyclopropyl)-1H-pyrazole-4-carboxylic Acid] | 10 to 100 | 10 to 100 | 100 to 1000 |  | 
7 | 1-(3′-((1-Ethyl-2,3-dihydro-1H-benzo[e][1,4]diazepin-4(5H)-yl)methyl)-[1,1′-biphenyl]-3-yl)-5-((1,2-trans)-2-(1-methyl-1H-1,2,3-triazol-4-yl)cyclopropyl)-1H-pyrazole-4-carboxylic Acid [Example 127] | 10 to 100 | 10 to 100 |  | 100 to 1000 | 
8 | Cn1cc([C@@H]2C[C@H]2c2c(C(=O)O)cnn2-c2cccc(-c3cccc(S(=O)(=O)N4CCCCC4)c3)c2)nn1 (racemic) [Example 143, 5-((1,2-trans)-2-(1-Methyl-1H-1,2,3-triazol-4-yl)cyclopropyl)-1-(3′-(piperidin-1-ylsulfonyl)-[1,1′-biphenyl]-3-yl)-1H-pyrazole-4-carboxylic Acid] | 10 to 100 | 10 to 100 | 100 to 1000 |  | 
9 | CC(=O)OCOC(=O)c1cnn(-c2cccc(-c3cccc(O[C@@H](C)C4CCCCC4)c3)c2)c1[C@@H]1C[C@H]1c1cn(C)nn1 [Example 110, Acetoxymethyl 1-(3′-((S)-1-cyclohexylethoxy)-[1,1′-biphenyl]-3-yl)-5-((1R,2R)-2-(1-methyl-1H-1,2,3-triazol-4-yl)cyclopropyl)-1H-pyrazole-4-carboxylate] | 100 to 1000 | 10 to 100 | < 1 |  | 
10 | C[C@H](Oc1cccc(-c2cccc(-n3ncc(C(=O)OC4CCOC4=O)c3[C@@H]3C[C@H]3c3cn(C)nn3)c2)c1)C1CCCCC1 (stereo partly drawn) [Example 106, 2-Oxotetrahydrofuran-3-yl 1-(3′-((S)-1-cyclohexylethoxy)-[1,1′-biphenyl]-3-yl)-5-((1R,2R)-2-(1-methyl-1H-1,2,3-triazol-4-yl)cyclopropyl)-1H-pyrazole-4-carboxylate] | > 10000 | 1000 to 10000 | 100 to 1000 |  | 
11 | C[C@H](Oc1cccc(-c2cccc(-n3ncc(C(=O)O)c3[C@@H]3C[C@H]3c3cn(C4COC4)nn3)c2)c1)C1CCCCC1 (racemic) [Example 77, 1-(3′-((S)-1-Cyclohexylethoxy)-[1,1′-biphenyl]-3-yl)-5-(trans-2-(1-(oxetan-3-yl)-1H-1,2,3-triazol-4-yl)cyclopropyl)-1H-pyrazole-4-carboxylic acid] | 10 to 100 | 10 to 100 | 10 to 100 |  | 
12 | C[C@@H](Oc1cccc(-c2cccc(-n3ncc(C(=O)O)c3[C@@H]3C[C@H]3c3cn(C)nn3)c2)c1)C1CCCCCC1 [Example 74, 1-(3′-((R)-1-Cycloheptylethoxy)-[1,1′-biphenyl]-3-yl)-5-((1R,2R)-2-(1-methyl-1H-1,2,3-triazol-4-yl)cyclopropyl)-1H-pyrazole-4-carboxylic Acid] | 10 to 100 | 10 to 100 | 10 to 100 |  | 

Second part, led by results:

Row | IC50 [2] [nM] | IC50 [3] [nM] | Molecule | EC50 ([1]; Homo sapiens) [nM] | EC50 [1] [nM] | EC50 ([1]; Homo sapiens, BEAS-2B, 48 h) [nM]
13 | 10 to 100 | < 10 | CCN1CCN(Cc2cccc(-c3cccc(-n4ncc(C(=O)O)c4[C@@H]4C[C@H]4c4cn(C)nn4)c3)c2)S(=O)(=O)c2ccccc21 [Example 139, 1-(3′-((5-Ethyl-1,1-dioxido-4,5-dihydrobenzo[f][1,2,5]thiadiazepin-2(3H)-yl)methyl)-[1,1′-biphenyl]-3-yl)-5-((1R, 2R)-2-(1-methyl-1H-1,2,3-triazol-4-yl)cyclopropyl)-1H-pyrazole-4-carboxylic acid] | 1000 to 10000 |  | 
14 | 10 to 100 | < 10 | CC[C@@H]1COc2ccccc2CN1Cc1cccc(-c2cccc(-n3ncc(C(=O)O)c3[C@@H]3C[C@H]3c3cn(C)nn3)c2)c1 [Example 120, 1-(3′-(((R)-3-Ethyl-2,3-dihydrobenzo[f][1,4]oxazepin-4(5H)-yl)methyl)-[1,1′-biphenyl]-3-yl)-5-((1R,2R)-2-(1-methyl-1H-1,2,3-triazol-4-yl)cyclopropyl)-1H-pyrazole-4-carboxylic Acid] | 10 to 100 |  | 
15 | 10 to 100 | < 10 | CCC[C@@H]1CCCCN1C(=O)c1cccc(-c2cccc(-n3ncc(C(=O)O)c3[C@H]3C[C@@H]3c3cn(C(C)C)nn3)c2)c1 (racemic) [Example 200] |  |  | 100 to 1000
16 | 1000 to 10000 | 100 to 1000 | C[C@H](Oc1cccc(-c2cccc(-n3ncc(C(=O)O)c3[C@H]3C[C@@H]3c3c[nH]nn3)c2)c1)C1CCCCC1 [Example 100, 5-((1S,2S)-2-(1H-1,2,3-Triazol-4-yl)cyclopropyl)-1-(3′-((S)-1-cyclohexylethoxy)-[1,1′-biphenyl]-3-yl)-1H-pyrazole-4-carboxylic Acid] | 100 to 1000 |  | 
17 | 1 to 10 | < 10 | CC[C@H]1c2ccccc2OCCN1Cc1cccc(-c2cccc(-n3ncc(C(=O)O)c3[C@@H]3C[C@H]3c3cn(C)nn3)c2)c1 (single isomer, unassigned; isomer 2) [Example 121] | 10 to 100 |  | 
